Laboratory results from the NIST ThermoML archive (doi:10.1021/je700261b).
± gives the expanded uncertainty stated by the source.

Test: xn = mol fraction of the nth substance listed
Details: Liquid

Question: Which mass density (323.07 K, 16977 kPa, x2 = 0.0857) does the source give for `CCCCO` [butan-1-ol] + O=C=O here?
Answer: 807.17 ± 0.59 kg/m3

Question: And the mass density (323.07 K, 18030 kPa, x2 = 0.0857)?
Answer: 808.01 ± 0.6 kg/m3

Question: And the mass density (323.07 K, 18995 kPa, x2 = 0.0857)?
Answer: 808.74 ± 0.61 kg/m3

Question: What about the mass density (323.07 K, 19987 kPa, x2 = 0.0857) of the same molecule?
Answer: 809.54 ± 0.61 kg/m3

Question: What about the mass density (323.07 K, 21040 kPa, x2 = 0.0857) of the same molecule?
Answer: 810.38 ± 0.62 kg/m3

Question: What about the mass density (323.07 K, 21992 kPa, x2 = 0.0857) of the same molecule?
Answer: 811.09 ± 0.63 kg/m3

Question: And the mass density (323.07 K, 23011 kPa, x2 = 0.0857)?
Answer: 811.87 ± 0.64 kg/m3

Question: What about the mass density (323.07 K, 24000 kPa, x2 = 0.0857) of the same molecule?
Answer: 812.6 ± 0.65 kg/m3

Question: What about the mass density (323.07 K, 25007 kPa, x2 = 0.0857) of the same molecule?
Answer: 813.42 ± 0.66 kg/m3

Question: What about the mass density (323.1 K, 10109 kPa, x2 = 0.4972) of the same molecule?
Answer: 818.96 ± 0.52 kg/m3

Question: What about the mass density (323.1 K, 11078 kPa, x2 = 0.4972) of the same molecule?
Answer: 820.55 ± 0.52 kg/m3

Question: And the mass density (323.1 K, 11078 kPa, x2 = 0.5965)?
Answer: 822.9 ± 0.55 kg/m3

Question: And the mass density (323.1 K, 12051 kPa, x2 = 0.4972)?
Answer: 822.08 ± 0.53 kg/m3

Question: And the mass density (323.1 K, 12072 kPa, x2 = 0.5965)?
Answer: 825.03 ± 0.53 kg/m3

Question: And the mass density (323.1 K, 12077 kPa, x2 = 0.8663)?
Answer: 777.48 ± 1.1 kg/m3

Question: What about the mass density (323.1 K, 13046 kPa, x2 = 0.8663) of the same molecule?
Answer: 787.33 ± 0.7 kg/m3

Question: What about the mass density (323.1 K, 13049 kPa, x2 = 0.4972) of the same molecule?
Answer: 823.64 ± 0.53 kg/m3

Question: What about the mass density (323.1 K, 13059 kPa, x2 = 0.5965) of the same molecule?
Answer: 827.1 ± 0.54 kg/m3

Question: What about the mass density (323.1 K, 14029 kPa, x2 = 0.8663) of the same molecule?
Answer: 796.15 ± 0.64 kg/m3

Question: And the mass density (323.1 K, 14053 kPa, x2 = 0.4972)?
Answer: 825.18 ± 0.54 kg/m3

Question: And the mass density (323.1 K, 14067 kPa, x2 = 0.5965)?
Answer: 829.16 ± 0.54 kg/m3

Question: What about the mass density (323.1 K, 15041 kPa, x2 = 0.4972) of the same molecule?
Answer: 826.62 ± 0.55 kg/m3

Question: What about the mass density (323.1 K, 15050 kPa, x2 = 0.8663) of the same molecule?
Answer: 804.37 ± 0.63 kg/m3

Question: And the mass density (323.1 K, 15063 kPa, x2 = 0.5965)?
Answer: 831.15 ± 0.55 kg/m3

Question: What about the mass density (323.1 K, 16046 kPa, x2 = 0.5965) of the same molecule?
Answer: 833.04 ± 0.55 kg/m3

Question: What about the mass density (323.1 K, 16058 kPa, x2 = 0.4972) of the same molecule?
Answer: 828.14 ± 0.55 kg/m3

Question: And the mass density (323.1 K, 16077 kPa, x2 = 0.8663)?
Answer: 811.86 ± 0.62 kg/m3

Question: And the mass density (323.1 K, 17030 kPa, x2 = 0.5965)?
Answer: 834.9 ± 0.56 kg/m3

Question: And the mass density (323.1 K, 17044 kPa, x2 = 0.8663)?
Answer: 818.37 ± 0.62 kg/m3

Question: What about the mass density (323.1 K, 17051 kPa, x2 = 0.4972) of the same molecule?
Answer: 829.54 ± 0.56 kg/m3

Question: What about the mass density (323.1 K, 18024 kPa, x2 = 0.8663) of the same molecule?
Answer: 824.54 ± 0.61 kg/m3

Question: What about the mass density (323.1 K, 18049 kPa, x2 = 0.5965) of the same molecule?
Answer: 836.78 ± 0.56 kg/m3

Question: What about the mass density (323.1 K, 18061 kPa, x2 = 0.4972) of the same molecule?
Answer: 830.96 ± 0.57 kg/m3

Question: And the mass density (323.1 K, 19022 kPa, x2 = 0.4972)?
Answer: 832.33 ± 0.57 kg/m3

Question: And the mass density (323.1 K, 19033 kPa, x2 = 0.8663)?
Answer: 830.52 ± 0.61 kg/m3

Question: And the mass density (323.1 K, 19044 kPa, x2 = 0.5965)?
Answer: 838.57 ± 0.57 kg/m3

Question: What about the mass density (323.1 K, 20021 kPa, x2 = 0.4972) of the same molecule?
Answer: 833.69 ± 0.58 kg/m3

Question: What about the mass density (323.1 K, 20028 kPa, x2 = 0.8663) of the same molecule?
Answer: 835.95 ± 0.61 kg/m3

Question: What about the mass density (323.1 K, 20039 kPa, x2 = 0.5965) of the same molecule?
Answer: 840.32 ± 0.57 kg/m3

Question: What about the mass density (323.1 K, 21026 kPa, x2 = 0.8663) of the same molecule?
Answer: 841.13 ± 0.6 kg/m3

Question: What about the mass density (323.1 K, 21047 kPa, x2 = 0.4972) of the same molecule?
Answer: 835.06 ± 0.59 kg/m3

Question: And the mass density (323.1 K, 21064 kPa, x2 = 0.5965)?
Answer: 842.09 ± 0.58 kg/m3

Question: And the mass density (323.1 K, 22036 kPa, x2 = 0.4972)?
Answer: 836.36 ± 0.59 kg/m3

Question: And the mass density (323.1 K, 22041 kPa, x2 = 0.5965)?
Answer: 843.75 ± 0.58 kg/m3

Question: And the mass density (323.1 K, 22054 kPa, x2 = 0.8663)?
Answer: 846.3 ± 0.6 kg/m3

Question: And the mass density (323.1 K, 23023 kPa, x2 = 0.5965)?
Answer: 845.38 ± 0.59 kg/m3

Question: What about the mass density (323.1 K, 23023 kPa, x2 = 0.8663) of the same molecule?
Answer: 850.85 ± 0.6 kg/m3

Question: What about the mass density (323.1 K, 23045 kPa, x2 = 0.4972) of the same molecule?
Answer: 837.69 ± 0.6 kg/m3

Question: And the mass density (323.1 K, 23996 kPa, x2 = 0.4972)?
Answer: 838.91 ± 0.6 kg/m3

Question: And the mass density (323.1 K, 24006 kPa, x2 = 0.8663)?
Answer: 855.33 ± 0.6 kg/m3

Question: What about the mass density (323.1 K, 24008 kPa, x2 = 0.5965) of the same molecule?
Answer: 847 ± 0.59 kg/m3

Question: What about the mass density (323.1 K, 25012 kPa, x2 = 0.4972) of the same molecule?
Answer: 840.21 ± 0.61 kg/m3

Question: What about the mass density (323.1 K, 25040 kPa, x2 = 0.5965) of the same molecule?
Answer: 848.65 ± 0.6 kg/m3

Question: What about the mass density (323.1 K, 25041 kPa, x2 = 0.8663) of the same molecule?
Answer: 859.75 ± 0.62 kg/m3

Question: And the mass density (332.94 K, 1010 kPa, x2 = 0.0251)?
Answer: 781.57 ± 0.46 kg/m3

Question: What about the mass density (332.94 K, 2077 kPa, x2 = 0.0251) of the same molecule?
Answer: 782.55 ± 0.47 kg/m3

Question: What about the mass density (332.94 K, 3046 kPa, x2 = 0.0251) of the same molecule?
Answer: 783.47 ± 0.48 kg/m3

Question: What about the mass density (332.94 K, 3990 kPa, x2 = 0.0251) of the same molecule?
Answer: 784.3 ± 0.49 kg/m3

Question: What about the mass density (332.94 K, 5002 kPa, x2 = 0.0251) of the same molecule?
Answer: 785.22 ± 0.5 kg/m3

Question: And the mass density (332.94 K, 6026 kPa, x2 = 0.0251)?
Answer: 786.15 ± 0.5 kg/m3

Question: And the mass density (332.94 K, 6975 kPa, x2 = 0.0251)?
Answer: 786.98 ± 0.51 kg/m3

Question: And the mass density (332.94 K, 8009 kPa, x2 = 0.0251)?
Answer: 787.91 ± 0.52 kg/m3

Question: What about the mass density (332.94 K, 9084 kPa, x2 = 0.0251) of the same molecule?
Answer: 788.83 ± 0.53 kg/m3

Question: And the mass density (332.94 K, 9985 kPa, x2 = 0.0251)?
Answer: 789.62 ± 0.54 kg/m3

Question: What about the mass density (332.94 K, 11024 kPa, x2 = 0.0251) of the same molecule?
Answer: 790.52 ± 0.55 kg/m3

Question: And the mass density (332.94 K, 12040 kPa, x2 = 0.0251)?
Answer: 791.34 ± 0.56 kg/m3

Question: And the mass density (332.94 K, 12968 kPa, x2 = 0.0251)?
Answer: 792.12 ± 0.57 kg/m3

Question: What about the mass density (332.94 K, 12999 kPa, x2 = 0.9698) of the same molecule?
Answer: 600.03 ± 1.2 kg/m3

Question: And the mass density (332.94 K, 13994 kPa, x2 = 0.0251)?
Answer: 792.95 ± 0.58 kg/m3

Question: And the mass density (332.94 K, 14036 kPa, x2 = 0.9698)?
Answer: 638.84 ± 1.1 kg/m3

Question: What about the mass density (332.94 K, 15021 kPa, x2 = 0.9698) of the same molecule?
Answer: 667.05 ± 0.98 kg/m3

Question: And the mass density (332.94 K, 15041 kPa, x2 = 0.0251)?
Answer: 793.85 ± 0.59 kg/m3

Question: And the mass density (332.94 K, 16014 kPa, x2 = 0.9698)?
Answer: 689.92 ± 0.93 kg/m3

Question: What about the mass density (332.94 K, 16061 kPa, x2 = 0.0251) of the same molecule?
Answer: 794.54 ± 0.6 kg/m3

Question: What about the mass density (332.94 K, 17001 kPa, x2 = 0.0251) of the same molecule?
Answer: 795.37 ± 0.61 kg/m3

Question: And the mass density (332.94 K, 17022 kPa, x2 = 0.9698)?
Answer: 709.37 ± 0.88 kg/m3

Question: What about the mass density (332.94 K, 18009 kPa, x2 = 0.9698) of the same molecule?
Answer: 725.81 ± 0.85 kg/m3

Question: And the mass density (332.94 K, 18031 kPa, x2 = 0.0251)?
Answer: 796.18 ± 0.62 kg/m3

Question: What about the mass density (332.94 K, 19010 kPa, x2 = 0.9698) of the same molecule?
Answer: 740.47 ± 0.82 kg/m3

Question: And the mass density (332.94 K, 19042 kPa, x2 = 0.0251)?
Answer: 796.95 ± 0.63 kg/m3

Question: What about the mass density (332.94 K, 20027 kPa, x2 = 0.0251) of the same molecule?
Answer: 797.73 ± 0.63 kg/m3

Question: What about the mass density (332.94 K, 20028 kPa, x2 = 0.9698) of the same molecule?
Answer: 753.7 ± 0.8 kg/m3

Question: What about the mass density (332.94 K, 20987 kPa, x2 = 0.0251) of the same molecule?
Answer: 798.46 ± 0.64 kg/m3
